These compounds were tested on IL17A (assay: skin Resident Immune Cell Assay (sRICA), Th17 model, IL17A protein in media). Settings: 100 uM solution in 1% DMSO/OD applied topically to human skin; media collected 24 hours after Th17 activation.
Type: cell-based
Protocol: A skin Resident Immune Cell Assay (sRICA) was used to test compounds for reduction of IL-17A protein upregulation in the Th17 sRICA model. In this model, human surgical skin waste was cultured in a transwell system, with the dermis in contact with cell culture media and the stratum corneum exposed to air. To perform the assay, each human skin sample was defatted and dermatomed to 750μm. Next, 8 mm punch biopsies were obtained and placed in a membrane transwell. The transwells were inserted into culture wells with complete media, and a cocktail of cytokines and antibodies were added to promote skin resident immune cell polarization.
RORγt inhibitors were prepared as a 100 uM solution in 1% DMSO/OD. […] of the prepared topical solution was applied to sRICA wells prepared for topical drug evaluation. Drugs were allowed to penetrate the skin overnight, for up to 24 hours prior to Th17 activation. Media was collected 24 hours after Th17 activation for IL17A protein assessment. IL17A protein was evaluated using the Quanterix IL17A detection kit on the SiMoA platform (via CRO Translational Biosciences). There was significant upregulation of IL17A with Th17 activation. Each study was normalized to the % max of IL17A production (i.e. the average IL17A concentration of Th17 activated skin alone) was set to 100%, all other values (untreated no activation and treated samples) were obtained as a percentage of this. […]
`COCc1ccc([C@@H](NC(=O)Cn2cnccc2=O)C(=O)Nc2ccc(C(C)(C)C)c(F)c2)cc1` showed an inhibition at 100 µM of 72.1%. `COc1ccc2c(c1)CCN(C(=O)c1cc(O)no1)[C@H]2C(=O)Nc1ccc(C(C)(C)C)c(F)c1` (stereo in doubt) [N-(4-tert-butyl-3-fluorophenyl)-2-((3-hydroxy-1,2-oxazol-5-yl)carbonyl)-6-methoxy-1,2,3,4-tetrahydroisoquinoline-1-carboxamide] showed an inhibition at 100 µM of 36%. `COc1ccc2c(c1)CCN(C(=O)c1cc(O)no1)[C@H]2C(=O)Nc1cc(F)c2c(c1)CCC2(C)C` (stereo in doubt) [N-(7-fluoro-1,1-dimethyl-2,3-dihydro-1H-inden-5-yl)-2-((3-hydroxy-1,2-oxazol-5-yl)carbonyl)-6-methoxy-1,2,3,4-tetrahydroisoquinoline-1-carboxamide] gave an inhibition at 100 µM of 42.3%. With `CCOc1ccc2c(c1)CCN(C(=O)Cc1cc(O)no1)[C@H]2C(=O)Nc1cc(F)c2c(c1)CCC2(C)C` [(1R)-6-ethoxy-N-(7-fluoro-1,1-dimethyl-2,3-dihydro-1H-inden-5-yl)-2-((3-hydroxy-1,2-oxazol-5-yl)acetyl)-1,2,3,4-tetrahydroisoquinoline-1-carboxamide] the inhibition at 100 µM was 67.9%. Work on `COCC(C)(C)c1c(F)cc(NC(=O)[C@H]2c3ccc(OC)cc3CCN2C(=O)c2cc(O)no2)cc1F` [(1R)-N-(3,5-difluoro-4-(1-methoxy-2-methylpropan-2-yl)phenyl)-2-((3-hydroxy-1,2-oxazol-5-yl)carbonyl)-6-methoxy-1,2,3,4-tetrahydroisoquinoline-1-carboxamide] yielded an inhibition at 100 µM of 56.2%. `COCC(C)(C)c1c(F)cc(NC(=O)[C@H]2c3ccc(OC)cc3CCN2C(=O)Cc2cc(O)no2)cc1F` [(1R)-N-(3,5-difluoro-4-(1-methoxy-2-methylpropan-2-yl)phenyl)-6-methoxy-2-((3-hydroxy-1,2-oxazol-5-yl)acetyl)-1,2,3,4-tetrahydro-isoquinoline-1-carboxamide] showed an inhibition at 100 µM of 46.3%. In the case of `COCC(C)(C)c1ccc(NC(=O)[C@H]2c3ccc(OC)cc3CCN2C(=O)c2cc(O)no2)cc1F` [(1R)-N-(3-fluoro-4-(1-methoxy-2-methylpropan-2-yl)phenyl)-2-((3-hydroxy-1,2-oxazol-5-yl)carbonyl)-6-methoxy-1,2,3,4-tetrahydroisoquinoline-1-carboxamide], the inhibition at 100 µM is reported as 55%. Work on `COc1ccc2c(c1)CCN(C(=O)Cc1cc(O)no1)[C@H]2C(=O)Nc1cc(F)c(C(C)(C)COCC(F)F)c(F)c1` [(1R)-N-(4-(1-(2,2-difluoroethoxy)-2-methylpropan-2-yl)-3,5-difluorophenyl)-2-((3-hydroxy-1,2-oxazol-5-yl)acetyl)-6-methoxy-1,2,3,4-tetrahydro-isoquinoline-1-carboxamide] yielded an inhibition at 100 µM of 39.3%. In the case of `COc1ccc2c(c1)CCN(C(=O)c1cc(O)no1)[C@H]2C(=O)Nc1cc(F)c(C(C)(C)COCC(F)F)c(F)c1` [(1R)-N-(4-(1-(2,2-difluoroethoxy)-2-methylpropan-2-yl)-3,5-difluorophenyl)-2-((3-hydroxy-1,2-oxazol-5-yl)carbonyl)-6-methoxy-1,2,3,4-tetarhydroisoquinoline-1-carboxamide], the inhibition at 100 µM is reported as 30.3%.

Same assay, conditions: Homo sapiens, 24 h, 100 uM solution in 1% DMSO/OD applied topically to human skin; media collected 24 hours after Th17 activation
With `COCc1ccc([C@@H](NC(=O)Cn2ccc(=O)cc2)C(=O)Nc2ccc([Si](C)(C)C)c(F)c2)cc1` the inhibition at 100 µM was 78.4%. For `COc1ccc([C@H](C(=O)Nc2ccc([Si](C)(C)C)c(F)c2)N(C)C(=O)c2cc(O)no2)cc1`, the inhibition at 100 µM was 76.9%. In the case of `CC[Si](C)(C)c1c(F)cc(NC(=O)[C@H]2c3ccc(COC)nc3CCN2C(=O)Cc2cc(O)no2)cc1F`, the inhibition at 100 µM is reported as 68.9%. Compound `COc1ccc([C@@H](NC(=O)c2cc(O)no2)C(=O)Nc2ccc([Si](C)(C)C)c(F)c2)cc1` has an inhibition at 100 µM of 55.3%. `COCc1ccc([C@@H](NC(=O)CNC(C)=O)C(=O)Nc2ccc([Si](C)(C)C)c(F)c2)cc1` gave an inhibition at 100 µM of 48.8%. `COCc1ccc([C@@H](NC(=O)Cn2c(=O)cc[nH]c2=O)C(=O)Nc2ccc([Si](C)(C)C)c(F)c2)cc1` gave an inhibition at 100 µM of 40.7%. `COCc1ccc([C@@H](NC(=O)C2CNC(=O)C2)C(=O)Nc2ccc([Si](C)(C)C)c(F)c2)cc1` (stereo in doubt) [(3R)-N-((1R)-2-((3-fluoro-4-(trimethylsilyl)phenyl)amino)-1-(4-(methoxymethyl)phenyl)-2-oxoethyl)-5-oxopyrrolidine-3-carboxamide] was tested, and the inhibition at 100 µM was 75.7%. Work on `CN(C(=O)c1cc(O)no1)[C@@H](C(=O)Nc1cc(F)c([Si](C)(C)C)c(F)c1)C1CCOCC1` (stereo in doubt) [N-(2-((3,5-difluoro-4-(trimethylsilyl)phenyl)amino)-2-oxo-1-(tetrahydro-2H-pyran-4-yl)ethyl)-3-hydroxy-N-methyl-1,2-oxazole-5-carboxamide] yielded an inhibition at 100 µM of 82.5%. Work on `COc1ccc2c(c1)CCN(C(=O)c1cc(O)no1)[C@H]2C(=O)Nc1ccc([Si](C)(C)C)c(F)c1` (stereo in doubt) [N-(3-fluoro-4-(trimethylsilyl)phenyl)-2-((3-hydroxy-1,2-oxazol-5-yl)carbonyl)-6-methoxy-1,2,3,4-tetrahydroisoquinoline-1-carboxamide] yielded an inhibition at 100 µM of 7.69%. Compound `COCc1ccc([C@@H](NC(=O)C2CCN(C(C)=O)CC2)C(=O)Nc2ccc([Si](C)(C)C)c(F)c2)cc1` [1-acetyl-N-((1R)-2-((3-fluoro-4-(trimethylsilyl)phenyl)amino)-1-(4-(methoxymethyl)phenyl)-2-oxoethyl)piperidine-4-carboxamide] has an inhibition at 100 µM of 77.5%. `COc1ccc2c(c1)CCN(C(=O)CCCC(=O)O)[C@H]2C(=O)Nc1cc(F)c([Si](C)(C)C)c(F)c1` [5-((1R)-1-((3,5-difluoro-4-(trimethylsilyl)phenyl)carbamoyl)-6-methoxy-3,4-dihydroisoquinolin-2(1H)-yl)-5-oxopentanoic acid] was tested, and the inhibition at 100 µM was 76.6%. `COCc1ccc2c(c1)CCN(C(=O)CCCC(=O)O)[C@H]2C(=O)Nc1cc(F)c([Si](C)(C)C)c(F)c1` [5-((1R)-1-((3,5-difluoro-4-(trimethylsilyl)phenyl)carbamoyl)-6-methoxymethyl-3,4-dihydroisoquinolin-2(1H)-yl)-5-oxopentanoic acid] was tested, and the inhibition at 100 µM was 77.4%. `COCc1ccc2c(c1)CCN(C(=O)CCCC(=O)O)[C@H]2C(=O)Nc1ccc([Si](C)(C)C)c(F)c1` [5-((1R)-1-((3-fluoro-4-(trimethylsilyl)phenyl)carbamoyl)-6-(methoxymethyl)-3,4-dihydroisoquinolin-2(1H)-yl)-5-oxopentanoic acid] showed an inhibition at 100 µM of 51.1%. In the case of `COc1ccc2c(n1)CCN(C(=O)CCCC(=O)O)[C@H]2C(=O)Nc1ccc([Si](C)(C)C)c(F)c1` [5-((5R)-5-((3-fluoro-4-(trimethylsilyl)phenyl)carbamoyl)-2-methoxy-7,8-dihydro-1,6-naphthyridin-6(5H)-yl)-5-oxopentanoic acid], the inhibition at 100 µM is reported as 51.5%. With `CC[Si](C)(C)c1c(F)cc(NC(=O)[C@H]2c3ccc(OC)nc3CCN2C(=O)CCCC(=O)O)cc1F` [5-((5R)-5-((4-(ethyl(dimethyl)silyl)-3,5-difluorophenyl)carbamoyl)-2-methoxy-7,8-dihydro-1,6-naphthyridin-6(5H)-yl)-5-oxopentanoic acid] the inhibition at 100 µM was 41.9%. With `COCc1ccc([C@@H](NC(=O)CCCC(=O)O)C(=O)Nc2cc(F)c([Si](C)(C)C)c(F)c2)cc1` [5-(((1R)-2-((3,5-difluoro-4-(trimethylsilyl)phenyl)amino)-1-(4-(methoxymethyl)phenyl)-2-oxoethyl)amino)-5-oxopentanoic acid] the inhibition at 100 µM was 26.7%. With `COc1ccc2c(c1)CCN(C(=O)Cc1cc(O)no1)[C@H]2C(=O)Nc1cc(F)c([Si](C)(C)C)c(F)c1` [(1R)-N-(3,5-difluoro-4-(trimethylsilyl)phenyl)-2-((3-hydroxy-1,2-oxazol-5-yl)acetyl)-6-methoxy-1,2,3,4-tetrahydroisoquinoline-1-carboxamide] the inhibition at 100 µM was 49.2%. In the case of `COc1ccc2c(c1)CCN(C(=O)Cc1cc(O)no1)[C@H]2C(=O)Nc1ccc([Si](C)(C)C)c(C#N)c1` [(1R)-N-(3-cyano-4-(trimethylsilyl)phenyl)-2-((3-hydroxy-1,2-oxazol-5-yl)acetyl)-6-methoxy-1,2,3,4-tetrahydroisoquinoline-1-carboxamide], the inhibition at 100 µM is reported as 42.8%. `COCc1ccc2c(c1)CCN(C(=O)Cc1cc(O)no1)[C@H]2C(=O)Nc1ccc([Si](C)(C)C)c(F)c1` [(1R)-N-(3-fluoro-4-(trimethylsilyl)phenyl)-2-((3-hydroxy-1,2-oxazol-5-yl)acetyl)-6-(methoxymethyl)-1,2,3,4-tetrahydroisoquinoline-1-carboxamide] gave an inhibition at 100 µM of 69.9%. `COc1ccc2c(c1)CCN(C(=O)Cc1cc(O)no1)[C@H]2C(=O)Nc1ccc([Si](C)(C)C)c(F)c1` [(1R)-N-(3-fluoro-4-(trimethylsilyl)phenyl)-2-((3-hydroxy-1,2-oxazol-5-yl)acetyl)-6-methoxy-1,2,3,4-tetrahydroisoquinoline-1-carboxamide] was tested, and the inhibition at 100 µM was 31.2%. Work on `COCc1ccc2c(c1)CCN(C(=O)c1cc(O)no1)[C@H]2C(=O)Nc1ccc([Si](C)(C)C)c(F)c1` [(1R)-N-(3-fluoro-4-(trimethylsilyl)phenyl)-2-((3-hydroxy-1,2-oxazol-5-yl)carbonyl)-6-methoxymethyl-1,2,3,4-tetrahydroisoquinoline-1-carboxamide] yielded an inhibition at 100 µM of 62.2%.
